Measured values published in PubChem BioAssay AID248 (DTP/NCI, 2004).
Toxic doses and inconclusive results are not listed. Rule as the data show it: active = T/C of 150% or more; inactive = T/C below 125%.

Test system: L1210 leukemia ip in BDF1 mice, survival T/C
Assay: NCI In Vivo Anticancer Drug Screen. Data for tumor model L1210 Leukemia (intraperitoneal) in B6D2F1 (BDF1) mice
Conditions: endpoint: mean survival time, higher = longer survival
Method in brief: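 Mice bearing the transplanted tumor received compound or vehicle. Survival of the treated group was divided by that of the vehicle-treated control group to give the ratio.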

[1] = dose: 6.25 mg/kg/injection, schedule: Q01DX009 (ip), vehicle: saline with Tween-80
[2] = dose: 12.5 mg/kg/injection, schedule: Q01DX009 (ip), vehicle: saline with Tween-80
[3] = dose: 100.0 mg/kg/injection, schedule: Q01DX009 (ip), vehicle: saline
[4] = dose: 100.0 mg/kg/injection, schedule: Q04DX003 (ip), vehicle: saline
[5] = dose: 200.0 mg/kg/injection, schedule: Q01DX009 (ip), vehicle: saline
[6] = dose: 200.0 mg/kg/injection, schedule: Q04DX003 (ip), vehicle: saline
[7] = dose: 400.0 mg/kg/injection, schedule: Q01DX009 (ip), vehicle: saline
[8] = dose: 400.0 mg/kg/injection, schedule: Q04DX003 (ip), vehicle: saline
[9] = dose: 100.0 mg/kg/injection, schedule: Q01DX001 (ip), vehicle: saline
[10] = dose: 200.0 mg/kg/injection, schedule: Q01DX001 (ip), vehicle: saline
[11] = dose: 400.0 mg/kg/injection, schedule: Q01DX001 (ip), vehicle: saline
[12] = dose: 100.0 mg/kg/injection, schedule: Q01DX001 (ip), vehicle: saline with Tween-80
[13] = dose: 200.0 mg/kg/injection, schedule: Q01DX001 (ip), vehicle: saline with Tween-80
[14] = dose: 400.0 mg/kg/injection, schedule: Q01DX001 (ip), vehicle: saline with Tween-80
[15] = dose: 100.0 mg/kg/injection, schedule: Q01DX001 (ip), vehicle: carboxymethylcellulose (CMC)
[16] = dose: 200.0 mg/kg/injection, schedule: Q01DX001 (ip), vehicle: carboxymethylcellulose (CMC)
[17] = dose: 100.0 mg/kg/injection, schedule: Q01DX001 (ip), vehicle: water
[18] = dose: 400.0 mg/kg/injection, schedule: Q01DX001 (ip), vehicle: carboxymethylcellulose (CMC)

Measured: T/C

OC1CC2CC1C1C3C=CC(C3)C21 (configuration not stated)
inactive: [1] 98 % of control | [2] 101 % of control | dose: 25.0 mg/kg/injection, schedule: Q01DX009 (ip), vehicle: saline with Tween-80 101 % of control

N#CCc1ccccc1S(=O)(=O)O
inactive: [3] 105 % of control | [4] 98 % of control | [5] 100 % of control | [6] 102 % of control | [7] 103 % of control | [8] 101 % of control

CN(C)CCSSCCN(C)C
inactive: dose: 50.0 mg/kg/injection, schedule: Q01DX001 (ip), vehicle: saline 102 % of control | [9] 104 % of control | [10] 96 % of control

O=C(OC1COC(Br)C(OC(=O)c2ccc([N+](=O)[O-])cc2)C1OC(=O)c1ccc([N+](=O)[O-])cc1)c1ccc([N+](=O)[O-])cc1 (configuration not stated)
inactive: [9] 98 % of control | [10] 96 % of control | [11] 91 % of control

c1ccc(P(=NC2CCCCCCC2)(c2ccccc2)c2ccccc2)cc1
inactive: [12] 96 % of control | [13] 98 % of control | [14] 105 % of control

CCCC(=O)OCC1OC(n2cc(C)c(=O)[nH]c2=O)CC1OC(=O)CCC (configuration not stated)
inactive: [15] 104 % of control | [16] 93 % of control

O=C1C(=O)c2ccccc2C(O)=C1CC=C1CCCC1
inactive: [17] 109 % of control | dose: 100.0 mg/kg/injection, schedule: Q01DX009 (ip), vehicle: water 105 % of control | dose: 200.0 mg/kg/injection, schedule: Q01DX009 (ip), vehicle: water 103 % of control

O=C(O)CCC(=O)c1ccc2c(c1)CCCC2
inactive: dose: 3.13 mg/kg/injection, schedule: Q01DX009 (ip), vehicle: saline with Tween-80 95 % of control | [1] 92 % of control | [2] 93 % of control

CC(=O)NCSCC(N)C(=O)O (configuration not stated)
inactive: [3] 100 % of control | [4] 108 % of control | [5] 95 % of control | [6] 92 % of control | [7] 92 % of control | [8] 94 % of control

c1ccc(Cc2nn[nH]n2)cc1
inactive: dose: 100.0 mg/kg/injection, schedule: Q04DX002 (ip), vehicle: Klucel (hydroxypropylcellulose) (HPC) 105 % of control | dose: 200.0 mg/kg/injection, schedule: Q04DX002 (ip), vehicle: Klucel (hydroxypropylcellulose) (HPC) 101 % of control | dose: 400.0 mg/kg/injection, schedule: Q04DX002 (ip), vehicle: Klucel (hydroxypropylcellulose) (HPC) 105 % of control

CN(CCCCN(C)CCOS(C)(=O)=O)CCOS(C)(=O)=O
active: dose: 1.7 mg/kg/injection, schedule: Q01DX015 (ip), vehicle: saline 177 % of control | dose: 8.3 mg/kg/injection, schedule: Q01DX001 (ip), vehicle: saline 155 % of control | dose: 12.5 mg/kg/injection, schedule: Q01DX001 (ip), vehicle: saline 160 % of control | dose: 18.7 mg/kg/injection, schedule: Q01DX001 (ip), vehicle: saline 155 % of control
inactive: dose: 25.0 mg/kg/injection, schedule: Q01DX001 (ip), vehicle: saline 116 % of control

O=C(O)/C(S)=C/c1ccc2c(c1)OCO2
inactive: [15] 100 % of control | [16] 102 % of control | [18] 102 % of control

COC(=O)C12OCC34C(CC5C(C)=C(O)C(=O)CC5(C)C3C(O)C1O)OC(=O)C(OC(=O)C=C(C)C)C24 (configuration not stated)
inactive: dose: 0.78 mg/kg/injection, schedule: Q04DX002 (ip), vehicle: saline with Tween-80 94 % of control | dose: 1.56 mg/kg/injection, schedule: Q04DX002 (ip), vehicle: saline with Tween-80 102 % of control | dose: 3.13 mg/kg/injection, schedule: Q04DX002 (ip), vehicle: saline with Tween-80 105 % of control

Oc1ccc(N=Cc2ccccc2O)cc1.[Co]
inactive: dose: 100.0 mg/kg/injection, schedule: Q01DX001 (ip), vehicle: other 98 % of control | dose: 200.0 mg/kg/injection, schedule: Q01DX001 (ip), vehicle: other 94 % of control | dose: 400.0 mg/kg/injection, schedule: Q01DX001 (ip), vehicle: other 102 % of control

CCCCC(CCCC)NC(C)COC(=O)c1ccc(N)cc1 (configuration not stated)
inactive: dose: 75.0 mg/kg/injection, schedule: Q01DX001 (ip), vehicle: carboxymethylcellulose (CMC) 104 % of control | dose: 150.0 mg/kg/injection, schedule: Q01DX001 (ip), vehicle: carboxymethylcellulose (CMC) 100 % of control | dose: 300.0 mg/kg/injection, schedule: Q01DX001 (ip), vehicle: carboxymethylcellulose (CMC) 101 % of control

c1ccc2c(c1)CC1(Cc3ccccc3-2)C[N+]12CCCCC2
inactive: dose: 12.5 mg/kg/injection, schedule: Q04DX003 (ip), vehicle: saline 98 % of control | dose: 25.0 mg/kg/injection, schedule: Q04DX003 (ip), vehicle: saline 98 % of control | dose: 50.0 mg/kg/injection, schedule: Q04DX003 (ip), vehicle: saline 110 % of control

c1ccc(-c2oc(-c3ccccc3)c3c(-c4ccccc4)cccc23)cc1
inactive: dose: 100.0 mg/kg/injection, schedule: Q04DX002 (ip), vehicle: saline with Tween-80 105 % of control | dose: 400.0 mg/kg/injection, schedule: Q04DX002 (ip), vehicle: saline with Tween-80 98 % of control

NC(=O)/C=C\c1csc2ccccc12
inactive: [15] 100 % of control | [16] 94 % of control | [18] 94 % of control

COC(=O)C1(C)CCCC2c3cc4c(cc3CCC21)C(=O)CC(C)O4 (configuration not stated)
inactive: [18] 86 % of control

CCSc1nc(C=O)c(Cc2ccc(Br)cc2)c(=O)[nH]1
inactive: dose: 100.0 mg/kg/injection, schedule: Q04DX003 (ip), vehicle: saline with Tween-80 106 % of control | dose: 200.0 mg/kg/injection, schedule: Q04DX003 (ip), vehicle: saline with Tween-80 103 % of control | dose: 400.0 mg/kg/injection, schedule: Q04DX003 (ip), vehicle: saline with Tween-80 106 % of control

COc1ncnc(=O)[nH]1
inactive: [9] 97 % of control | [10] 98 % of control | [11] 97 % of control

O=C(O)C(SC(C(=O)O)c1ccccc1)c1ccccc1 (configuration not stated)
inactive: dose: 75.0 mg/kg/injection, schedule: Q04DX003 (ip), vehicle: saline with Tween-80 94 % of control | [9] 93 % of control | dose: 150.0 mg/kg/injection, schedule: Q04DX003 (ip), vehicle: saline with Tween-80 96 % of control | [10] 104 % of control | dose: 300.0 mg/kg/injection, schedule: Q04DX003 (ip), vehicle: saline with Tween-80 104 % of control | [11] 98 % of control

Cc1ccc(NC(=O)Oc2cc(C)c(Cl)c(C)c2)cc1
inactive: dose: 100.0 mg/kg/injection, schedule: Q01DX009 (ip), vehicle: Klucel (hydroxypropylcellulose) (HPC) 94 % of control | dose: 200.0 mg/kg/injection, schedule: Q01DX009 (ip), vehicle: Klucel (hydroxypropylcellulose) (HPC) 97 % of control | dose: 400.0 mg/kg/injection, schedule: Q01DX009 (ip), vehicle: Klucel (hydroxypropylcellulose) (HPC) 96 % of control

O=C(CNc1ccccc1)NCc1ccccc1
inactive: dose: 100.0 mg/kg/injection, schedule: Q01DX009 (ip), vehicle: saline with Tween-80 92 % of control | dose: 200.0 mg/kg/injection, schedule: Q01DX009 (ip), vehicle: saline with Tween-80 95 % of control | dose: 400.0 mg/kg/injection, schedule: Q01DX009 (ip), vehicle: saline with Tween-80 97 % of control

CC1(C)N=C(N)N=C(N)N1c1cccc(/C=C/C=C/c2cccc([N+](=O)[O-])c2)c1
inactive: [9] 100 % of control

CC(=O)Nc1nc[nH]c1C(N)=O
inactive: [12] 106 % of control | [13] 105 % of control | [14] 100 % of control

Nc1nc2c(ncn2-c2cccc3ccccc23)c(=O)[nH]1
inactive: dose: 25.0 mg/kg/injection, schedule: Q01DX001 (ip), vehicle: saline with Tween-80 93 % of control | dose: 50.0 mg/kg/injection, schedule: Q01DX001 (ip), vehicle: saline with Tween-80 119 % of control | [12] 93 % of control

CNCCCC(CO)NS(=O)(=O)c1ccc(C)cc1 (configuration not stated)
inactive: [17] 94 % of control | dose: 100.0 mg/kg/injection, schedule: Q04DX003 (ip), vehicle: water 92 % of control | dose: 200.0 mg/kg/injection, schedule: Q01DX001 (ip), vehicle: water 97 % of control | dose: 200.0 mg/kg/injection, schedule: Q04DX003 (ip), vehicle: water 100 % of control | dose: 400.0 mg/kg/injection, schedule: Q01DX001 (ip), vehicle: water 97 % of control | dose: 400.0 mg/kg/injection, schedule: Q04DX003 (ip), vehicle: water 87 % of control
